Data as given in article PMC8464809, “Anticancer and Structure Activity Relationship of Non-Symmetrical Choline Kinase Inhibitors” (Pharmaceutics, 2021).

What was measured:
[1] = test system: HT-29 cells; experiment: Antiproliferative MTT assay, HT-29; type: cell-based; details: Homo sapiens, 72 h
Experimental: (§1) Human cervix carcinoma (HeLa) and human breast cancer (MCF-7) were grown in the DMEM medium (Gibco, Milan, Italy). B-acute lymphoblastic leukemia (RS4;11), T-acute lymphoblastic leukemia (CCRF-CEM and Jurkat), human promyelocytic cells (HL-60), and human colon adenocarcinoma (HT-29) cells were grown in RPMI medium (Gibco, Milan, Italy). Both media were supplemented with 115 units/mL of penicillin G (Gibco, Milan, Italy), 115 μg/mL of streptomycin (Invitrogen, Milan, Italy), and 10% FBS (Invitrogen, Milan, Italy). Cell lines were tested for mycoplasma contamination every 6 months by the RT-PCR analysis. Stock solutions (10 mM) of the different compounds were obtained by dissolving them in DMSO. Individual wells of 96-well tissue-culture microtiter plates were inoculated with 100 μL of complete medium containing 5 × 10^3 adherent cells or 25 × 10^3 leukemia cells. The plates were incubated at 37 °C in a humidified 5% CO2 incubator for 18 h prior to the experiments. After medium removal, 100 μL of fresh medium containing the test compound at different concentrations was added to each well and incubated at 37 °C for 72 h.

[2] = test system: CCRF-CEM cells; experiment: Antiproliferative MTT assay, CCRF-CEM; type: cell-based; details: Homo sapiens, 72 h
Experimental: as §1

[3] = test system: HeLa cells; experiment: Antiproliferative MTT assay, HeLa; type: cell-based; details: Homo sapiens, 72 h
Experimental: as §1

[4] = test system: RS4;11 cells; experiment: Antiproliferative MTT assay, RS4;11; type: cell-based; details: Homo sapiens, 72 h
Experimental: as §1

[5] = target: T1, human ChoKα1 (Homo sapiens, UniProt P35790); experiment: Inhibition of purified ChoKα1: incorporation of 14C from [methyl-14C]choline into phosphocholine; type: biochemical; details: purified ChoKα1, 1 mM choline, 10 mM ATP, 37 °C, 10 min; read-out: IC50 hChoKα1
T1 construct: made in house
Experimental: The effect of compounds 3a–h and 4a–h on ChoKα1 was assayed in purified ChoKα1 as previously described, by determining the rate of incorporation of ^14C from [methyl-^14C]choline into phosphocholine, both in the absence (control) or presence of different inhibitor concentrations. Briefly, 20 ng of purified ChoKα1 were incubated with 1 mM [methyl-^14C]choline (4500 dpm/nmol) in 100 mM Tris-HCl (pH 8.5), 10 mM MgCl2, 10 mM ATP, and incubated at 37 °C for 10 min. The reaction was stopped by immersing the reaction tubes in boiling water for 3 min. Aliquots of the reaction were applied to the origin of silica gel plates in the presence of phosphocholine (0.1 mg) and choline (0.1 mg) as carriers. The chromatography was developed in methanol/0.6% NaCl/28% NH4OH in water (50:50:5, v/v/v) as a solvent, and phosphocholine was visualized under exposure to iodine vapor. The corresponding spot was scraped and transferred to scintillation vials for measurement of radioactivity by a Beckman 6000-TA (Madrid, Spain) liquid-scintillation counter. The 50% inhibitory concentrations (IC50 value) were determined from the % activity of the enzyme at different concentrations of synthetic inhibitor using a sigmoidal dose-response curve (the ED50plus v1.0 software).

[6] = test system: MCF-7 cells; experiment: Antiproliferative MTT assay, MCF-7; type: cell-based; details: Homo sapiens, MCF7, 72 h
Experimental: as §1

[7] = test system: HL-60 cells; experiment: Antiproliferative MTT assay, HL-60; type: cell-based, human; details: for GI50: Homo sapiens, HL-60, 72 h, MTT
Experimental: as §1

[8] = test system: choline uptake in HepG2 cells; experiment: Choline uptake assay; type: cell-based; details: Homo sapiens, 10 min preincubation with the compound
Experimental: Choline uptake was determined as previously reported. Briefly, HepG2 cells (200,000 cells/well) were incubated for 10 min at 37 °C either in a medium containing different concentrations of ChoKα1 inhibitors or only with the medium as controls. The medium was then removed and the cells were immediately exposed to a medium containing [methyl-^14C]choline (16 μM, 31 Ci/mol) for 10 min at 37 °C. The incorporation of choline was stopped by medium aspiration followed by two washes with ice-cold PBS containing 580 μM choline. The cells were solubilized in NaOH 0.1 N and an aliquot was used to determine the total amount of radiolabel taken up by the cells.

[9] = Cytotoxicity in resting peripheral blood lymphocytes (MTT); type: cell-based; details: human, PBL not stimulated with PHA, healthy donors, read-out: GI50 PBLresting
Experimental: (§2) Additional experiments were conducted with peripheral blood lymphocytes (PBL) from healthy donors obtained as described previously. For cytotoxicity evaluations in proliferating PBL cultures, non-adherent cells were resuspended at 5 × 10^5 cells/mL in a growth medium containing 2.5 µg/mL PHA (Irvine Scientific). Different concentrations of the test compounds were added, and viability was determined 72 h later by the MTT test. For cytotoxicity evaluations in resting PBL cultures, non-adherent cells were resuspended (5 × 10^5 cells/mL) and treated for 72 h with the test compounds, as described above.

[10] = Cytotoxicity in PHA-stimulated peripheral blood lymphocytes (MTT); type: cell-based; details: human, PBL stimulated with PHA, healthy donors, read-out: GI50 PBLPHA
Experimental: as §2

[11] = test system: Jurkat cells; experiment: Apoptosis by annexin-V/PI flow cytometry; type: cell-based, human; details: after 24 h of treatment, concentration dependent
Experimental: Jurkat cells were treated with the test compounds and after different times stained with both PI, to stain DNA, and annexin V-fluorescein isothiocyanate, to stain membrane PS exposed on the cell surface, following the instructions of the manufacturer (Roche Diagnostics) of the Annexin-V-Fluos reagent.

[12] = test system: HT-29, HeLa, MCF-7, CCRF-CEM, HL-60, and RS4;11cells; experiment: Antiproliferative MTT assay, panel of six human tumor cell lines; type: cell-based; details: HL-60, RS4;11, 72 h
Experimental: as §1

T1 sequence (P35790 whole entry): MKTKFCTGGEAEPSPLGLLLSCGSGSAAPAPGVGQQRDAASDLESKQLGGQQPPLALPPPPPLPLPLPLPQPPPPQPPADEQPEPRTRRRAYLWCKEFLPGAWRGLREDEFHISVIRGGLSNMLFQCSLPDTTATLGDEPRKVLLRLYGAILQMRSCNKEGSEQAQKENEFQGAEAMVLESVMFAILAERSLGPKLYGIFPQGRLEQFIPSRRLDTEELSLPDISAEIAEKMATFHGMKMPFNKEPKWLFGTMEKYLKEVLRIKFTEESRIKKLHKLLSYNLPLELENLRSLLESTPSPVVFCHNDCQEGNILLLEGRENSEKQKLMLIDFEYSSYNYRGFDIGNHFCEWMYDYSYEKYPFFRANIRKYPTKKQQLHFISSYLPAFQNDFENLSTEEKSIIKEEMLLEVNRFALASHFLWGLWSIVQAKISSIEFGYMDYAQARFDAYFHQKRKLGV

| Structure (SMILES) | GI50 [1] [µM] | GI50 [2] [µM] | GI50 [3] [µM] | GI50 [4] [µM] | IC50 [5] [µM] | GI50 [6] [µM] | GI50 [7] [µM] | IC50 [8] [µM] | GI50 at 72 h [9] [µM] | GI50 at 72 h [10] [µM] | apoptotic cells (annexin-V/PI) [11] | fold more potent than MN-48b ([7]; against HL-60 leukemic cells, MN-48b ref 23) [fold] | GI50 values, range over six cell lines [12] [nM] |
| --- | --- | --- | --- | --- | --- | --- | --- | --- | --- | --- | --- | --- | --- |
| CN(C)c1cc[n+](Cc2ccc(CCc3ccc(COc4cccc(N)c4)cc3)cc2)cc1 [Compound 3g] | 2.2 ± 0.9 | 0.4 ± 0.26 | 1.2 ± 0.2 | 2.6 ± 0.2 | 4.29 ± 0.12 | 4.3 ± 0.9 | 1.6 ± 0.9 |  |  |  |  |  |  |
| Nc1cccc(OCc2ccc(C[n+]3ccc(N4CCCC4)cc3)cc2)c1 [Compound 3a] | 36 ± 7.4 | 3.4 ± 0.7 | 4.8 ± 0.58 | 16.8 ± 4.8 | > 50 | 22.8 ± 4.3 | 4.8 ± 0.4 |  |  |  |  |  |  |
| Oc1cccc(NCc2ccc(CCCCc3ccc(C[n+]4ccc(N5CCCC5)cc4)cc3)cc2)c1 [Compound 4d] | 5.8 ± 1.9 | 0.086 ± 0.03 | 0.39 ± 0.12 | 0.71 ± 0.16 | 3.36 ± 0.17 | 2.8 ± 0.5 | 0.33 ± 0.074 |  |  |  |  |  |  |
| Nc1cccc(OCc2ccc(CCCCc3ccc(C[n+]4ccc(N5CCCC5)cc4)cc3)cc2)c1 [Compound 3d] | 0.58 ± 0.17 | 0.015 ± 0.005 | 0.16 ± 0.048 | 0.29 ± 0.053 | 6.79 ± 0.47 | 0.5 ± 0.2 | 0.12 ± 0.091 | 15.8 ± 0.24 |  |  |  |  |  |
| Oc1cccc(NCc2ccc(C[n+]3ccc(N4CCCC4)cc3)cc2)c1 [Compound 4a] | 49.7 ± 11.4 | 7.3 ± 2.5 | 12.8 ± 2.6 | 24.5 ± 2.9 | 3.34 ± 0.34 | 17.8 ± 5.3 | 4.1 ± 1.2 |  |  |  |  |  |  |
| CN(C)c1cc[n+](Cc2ccc(-c3ccc(CNc4cccc(O)c4)cc3)cc2)cc1 [Compound 4f] | 13.2 ± 5 | 1.1 ± 0.4 | 3.6 ± 0.4 | 3.7 ± 0.4 |  | 5 ± 1 | 1.3 ± 0.4 | 3.5 ± 0.07 | 7.6 ± 1.1 | 3.6 ± 0.8 | significant increase of apoptotic cells |  |  |
| Nc1cccc(OCc2ccc(-c3ccc(C[n+]4ccc(N5CCCC5)cc4)cc3)cc2)c1 [Compound 3b] |  |  |  |  | 17.5 ± 1.24 |  |  |  |  |  |  |  |  |
| CN(C)c1cc[n+](Cc2ccc(-c3ccc(COc4cccc(N)c4)cc3)cc2)cc1 [Compound 3f] | 4.4 ± 0.7 | 0.54 ± 0.21 | 4.2 ± 0.5 | 2 ± 0.5 | 6.39 ± 0.46 | 7.6 ± 1.6 | 2.4 ± 0.7 |  |  |  |  |  |  |
| CN(C)c1cc[n+](Cc2ccc(CCCCc3ccc(COc4cccc(N)c4)cc3)cc2)cc1 [Compound 3h] |  |  |  |  | 7.01 ± 0.13 |  |  |  |  |  |  |  |  |
| CN(C)c1cc[n+](Cc2ccc(CCc3ccc(CNc4cccc(O)c4)cc3)cc2)cc1 [Compound 4g] | 5.2 ± 1.7 | 0.7 ± 0.1 | 1.7 ± 0.2 | 1.1 ± 0.3 | 3.66 ± 0.11 | 2.4 ± 0.2 | 0.25 ± 0.066 |  |  |  |  |  |  |
| Nc1cccc(OCc2ccc(CCc3ccc(C[n+]4ccc(N5CCCC5)cc4)cc3)cc2)c1 [Compound 3c] | 0.63 ± 0.14 | 0.03 ± 0.003 | 0.068 ± 0.028 | 0.15 ± 0.012 | 8.56 ± 0.94 | 0.3 ± 0.1 | 0.011 ± 0.005 |  | > 10 | > 10 | significant increase of apoptotic cells | 30 | 630 to 11 |
| Oc1cccc(NCc2ccc(-c3ccc(C[n+]4ccc(N5CCCC5)cc4)cc3)cc2)c1 [Compound 4b] | 6.6 ± 2.3 | 0.5 ± 0.1 | 2.1 ± 0.4 | 2.8 ± 0.6 | 3.85 ± 0.1 | 4.4 ± 0.5 | 1.1 ± 0.3 |  |  |  |  |  |  |
| Oc1cccc(NCc2ccc(CCc3ccc(C[n+]4ccc(N5CCCC5)cc4)cc3)cc2)c1 [Compound 4c] | 5.3 ± 2.1 | 0.14 ± 0.03 | 0.86 ± 0.26 | 0.46 ± 0.061 | 3.83 ± 0.91 | 1.7 ± 0.4 | 0.065 ± 0.023 |  |  |  |  |  |  |
| CN(C)c1cc[n+](Cc2ccc(COc3cccc(N)c3)cc2)cc1 [Compound 3e] | 26.1 ± 6.7 | 1.2 ± 0.5 | 8.2 ± 2.4 | 53.6 ± 13.4 | 6.33 ± 0.8 | 23.6 ± 5.1 | 38.7 ± 6.2 |  |  |  |  |  |  |
| CN(C)c1cc[n+](Cc2ccc(CCCCc3ccc(CNc4cccc(O)c4)cc3)cc2)cc1 [Compound 4h] | 3.6 ± 1.4 | 0.16 ± 0.034 | 0.7 ± 0.1 | 0.5 ± 0.08 |  | 2.2 ± 1 | 0.37 ± 0.079 |  |  |  |  |  |  |
| CN(C)c1cc[n+](Cc2ccc(CNc3cccc(O)c3)cc2)cc1 [Compound 4e] | 23.8 ± 8.2 | 8.4 ± 1.6 | 12.4 ± 1.8 | 31 ± 2.6 | 2.82 ± 0.16 | 6.7 ± 1.5 | 4 ± 0.9 |  |  |  |  |  |  |
